Reference: ChEMBL document CHEMBL1147010, “Aziridine-2,3-dicarboxylate inhibitors targeting the major cysteine protease of Trypanosoma brucei as lead trypanocidal agents” (Bioorg Med Chem Lett, 2006)
Converted amounts (≈) assume the structure as drawn. The source made the active and inactive calls. No cut-off for these calls is given here.

How the values were obtained:
[1] = biological target: Rhodesain (Trypanosoma brucei rhodesiense, UniProt Q95PM0); assay: Inhibition of Trypanosoma brucei rhodesiense rhodesain
Chain of Rhodesain (Q95PM0 whole entry): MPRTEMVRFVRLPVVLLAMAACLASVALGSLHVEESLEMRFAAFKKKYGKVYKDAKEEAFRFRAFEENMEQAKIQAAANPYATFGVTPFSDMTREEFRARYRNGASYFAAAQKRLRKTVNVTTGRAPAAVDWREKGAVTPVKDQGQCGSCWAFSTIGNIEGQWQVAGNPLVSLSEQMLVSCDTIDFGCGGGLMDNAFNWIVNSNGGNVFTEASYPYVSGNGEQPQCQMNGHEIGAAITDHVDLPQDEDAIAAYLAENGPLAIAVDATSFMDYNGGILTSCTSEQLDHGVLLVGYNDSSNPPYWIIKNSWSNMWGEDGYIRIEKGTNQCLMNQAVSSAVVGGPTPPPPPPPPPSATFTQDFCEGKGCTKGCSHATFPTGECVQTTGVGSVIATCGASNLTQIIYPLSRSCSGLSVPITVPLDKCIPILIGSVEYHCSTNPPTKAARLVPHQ

[2] = biological target: Rhodesain (Trypanosoma brucei rhodesiense) (UniProt Q95PM0); assay: Inhibition of Trypanosoma brucei rhodesiense rhodesain at 140 uM
Chain of Rhodesain (Trypanosoma brucei rhodesiense) (Q95PM0 1-450): as the sequence (Q95PM0 whole entry) above

[3] = test system: J774; assay: Cytotoxicity against J774.1 cell line after 48 hrs; format: functional, cell-based; settings: Mus musculus, J774, 48 h
[4] = biological target: Rhodesain (Trypanosoma brucei rhodesiense) (UniProt Q95PM0); assay: Inhibition of Trypanosoma brucei rhodesiense rhodesain at 200 uM
[5] = test system: Trypanosoma brucei brucei; assay: Trypanocidal activity against Trypanosoma brucei brucei after 48 hrs; format: functional, organism-based
[6] = test system: J774; assay: Selectivity index, IC50 for J774.1/IC50 for Trypanosoma brucei brucei; format: functional

Row | inhibition [2] | inhibition [4] [%] | Compound | Ki [1] [µM] | IC50 [3] [µM] | MIC [5] [µM] | Ratio IC50 [6] | IC50 [5] [µM]
1 | – | – | C[C@H](NC(=O)[C@H](Cc1ccccc1)NC(=O)OC(C)(C)C)C(=O)N1[C@H](C(=O)O)[C@H]1C(=O)O | 0.5 | – | – | – | –
2 | – | – | C[C@H](NC(=O)[C@@H](Cc1ccccc1)NC(=O)OC(C)(C)C)C(=O)N1[C@H](C(=O)O)[C@H]1C(=O)O | 0.1 | – | – | – | –
3 | inactive | – | CC(C)C[C@H](NC(=O)OC(C)(C)C)C(=O)N1CCC[C@@H](C(=O)N2[C@H](C(=O)O)[C@H]2C(=O)O)C1 | – | – | – | – | –
4 | – | 30.7 | Cl.NCCCC(N)(C(=O)O)C(F)F.O (stereo not given) [EFLORNITHINE HYDROCHLORIDE] | – | > 1000 | > 1000 | >44 | –
5 | – | – | CCOC(=O)[C@@H]1[C@@H](C(=O)OCC)N1C(=O)[C@@H]1CCCN(C(=O)[C@H](CC(C)C)NC(=O)OC(C)(C)C)C1 | 1 | > 100 | – | – | > 100
6 | – | – | CCOC(=O)[C@@H]1[C@@H](C(=O)OCC)N1C(=O)[C@@H]1CN1C(=O)[C@@H](CC(C)C)NC(=O)OC(C)(C)C | 1.6 | > 100 | – | >3.5 | 28.3
7 | – | – | C[C@@H](NC(=O)[C@H](Cc1ccccc1)NC(=O)OC(C)(C)C)C(=O)N1[C@H](C(=O)O)[C@H]1C(=O)O | 0.8 | – | – | – | –
8 | – | – | CCOC(=O)[C@H]1[C@H](C(=O)OCC)N1C(=O)[C@H]1CCCN(C(=O)[C@H](CC(C)C)NC(=O)OC(C)(C)C)C1 | 1.9 | > 100 | – | – | > 100
9 | inactive | – | CC(C)C[C@H](NC(=O)OC(C)(C)C)C(=O)N1CCC(C(=O)N2[C@H](C(=O)O)[C@H]2C(=O)O)CC1 | – | – | – | – | –
10 | – | – | C[C@H](NC(=O)[C@H](Cc1ccccc1)NC(=O)OC(C)(C)C)C(=O)N1[C@H](C(=O)OCc2ccccc2)[C@H]1C(=O)OCc1ccccc1 | 1.9 | > 100 | – | >3.7 | 26.7
11 | – | – | CCOC(=O)[C@@H]1[C@@H](C(=O)OCC)N1C(=O)[C@@H]1CCCN1C(=O)[C@H](CC(C)C)NC(=O)OC(C)(C)C | 3.1 | > 100 | – | – | > 100
12 | – | – | C[C@@H](NC(=O)[C@@H](Cc1ccccc1)NC(=O)OC(C)(C)C)C(=O)N1[C@H](C(=O)O)[C@H]1C(=O)O | 5 | – | – | – | –
13 | – | – | CC(C)(C)OC(=O)NCC(=O)N1CCC[C@@H]1C(=O)N1[C@H](C(=O)OCc2ccccc2)[C@H]1C(=O)OCc1ccccc1 | 1.6 | > 100 | – | – | > 100
14 | inactive | – | CC(C)(C)OC(=O)NCC(=O)N1CCC[C@@H](C(=O)N2[C@H](C(=O)O)[C@H]2C(=O)O)C1 | – | – | – | – | –
15 | – | – | CC(C)C[C@H](NC(=O)OC(C)(C)C)C(=O)N1CC[C@H]1C(=O)N1[C@H](C(=O)OCc2ccccc2)[C@H]1C(=O)OCc1ccccc1 | 0.8 | 37.2 | – | 1.2 | 30.8
16 | – | – | C[C@@H](NC(=O)[C@@H](Cc1ccccc1)NC(=O)OC(C)(C)C)C(=O)N1[C@H](C(=O)OCc2ccccc2)[C@H]1C(=O)OCc1ccccc1 | 3.9 | > 100 | – | >3.8 | 25.8
17 | – | – | CCOC(=O)[C@H]1[C@H](C(=O)OCC)N1C(=O)C1CCN(C(=O)[C@H](CC(C)C)NC(=O)OC(C)(C)C)CC1 | 3.3 | > 100 | – | – | > 100
18 | – | – | CCOC(=O)[C@H]1[C@H](C(=O)OCC)N1C(=O)CCCCCNC(=O)CCCC[C@@H]1SC[C@@H]2NC(=O)N[C@@H]21 | 0.6 | > 100 | – | – | > 100
19 | – | – | CC(C)(C)OC(=O)NCC(=O)N1CCCC[C@H]1C(=O)N1[C@H](C(=O)OCc2ccccc2)[C@H]1C(=O)OCc1ccccc1 | 0.7 | – | – | – | 27.6
20 | – | – | CCOC(=O)[C@@H]1[C@@H](C(=O)OCC)N1C(=O)C1CCN(C(=O)[C@H](CC(C)C)NC(=O)OC(C)(C)C)CC1 | 1.4 | > 100 | – | – | > 100
21 | – | – | CC(C)C[C@@H](NC(=O)OC(C)(C)C)C(=O)N1CCC[C@@H](C(=O)N2[C@H](C(=O)OCc3ccccc3)[C@H]2C(=O)OCc2ccccc2)C1 | 0.7 | > 100 | – | >2.9 | 34
22 | – | – | CC1CS(=O)(=O)CCN1/N=C/c1ccc([N+](=O)[O-])o1 (stereo not given) [NIFURTIMOX] | – | > 200 | 200 (≈ 57.5 µg/mL) | >58 | 3.4
23 | inactive | – | CC(C)(C)OC(=O)NCC(=O)N1CCC[C@H](C(=O)N2[C@H](C(=O)O)[C@H]2C(=O)O)C1 | – | – | – | – | –
24 | – | – | CCOC(=O)[C@H]1[C@H](C(=O)OCC)N1C(=O)[C@H]1CCN1C(=O)[C@H](CC(C)C)NC(=O)OC(C)(C)C | 3.1 | > 100 | – | >4.8 | 20.6

Row | inhibition [2] | inhibition [4] [%] | Compound | Ki [1] [µM] | IC50 [3] [µM] | MIC [5] [µM] | Ratio IC50 [6] | IC50 [5] [µM]
25 | – | – | CC(C)C[C@H](NC(=O)OC(C)(C)C)C(=O)N1CCC[C@H](C(=O)N2[C@H](C(=O)OCc3ccccc3)[C@H]2C(=O)OCc2ccccc2)C1 | 0.6 | > 100 | – | >3.9 | 25.6
26 | – | – | CC(C)C[C@H](NC(=O)OC(C)(C)C)C(=O)N1CCC[C@H]1C(=O)N1[C@@H](C(=O)OCc2ccccc2)[C@@H]1C(=O)OCc1ccccc1 | 0.5 | > 125 | 125 (≈ 77.7 µg/mL) | >11.5 | 10.9
27 | – | – | CC(C)(C)OC(=O)NCC(=O)N1CCC[C@H](C(=O)N2[C@H](C(=O)OCc3ccccc3)[C@H]2C(=O)OCc2ccccc2)C1 | 1.1 | > 100 | – | >2.7 | 36.4
28 | – | – | CCOC(=O)[C@H]1[C@H](C(=O)OCC)N1C(=O)[C@@H]1CCCN(C(=O)[C@H](CC(C)C)NC(=O)OC(C)(C)C)C1 | 1.9 | > 100 | – | – | > 100
29 | inactive | – | CC(C)(C)OC(=O)NCC(=O)N1CCC[C@@H]1C(=O)N1[C@H](C(=O)O)[C@H]1C(=O)O | – | > 100 | – | – | > 100
30 | – | 31.5 | Cc1ccc(C(=O)Nc2ccc(S(=O)(=O)[O-])c3cc(S(=O)(=O)[O-])cc(S(=O)(=O)[O-])c23)cc1NC(=O)c1cccc(NC(=O)Nc2cccc(C(=O)Nc3cc(C(=O)Nc4ccc(S(=O)(=O)[O-])c5cc(S(=O)(=O)[O-])cc(S(=O)(=O)[O-])c45)ccc3C)c2)c1.[Na+].[Na+].[Na+].[Na+].[Na+].[Na+] [SURAMIN HEXASODIUM] | – | > 1000 | 1 | >3225 | 0.31
31 | – | – | CC(C)C[C@@H](NC(=O)OC(C)(C)C)C(=O)N1CCC[C@H]1C(=O)N1[C@H](C(=O)OCc2ccccc2)[C@H]1C(=O)OCc1ccccc1 | 1.1 | > 100 | – | >2.9 | 34.3
32 | – | – | CC(C)(C)OC(=O)NCC(=O)N1CCC[C@@H](C(=O)N2[C@H](C(=O)OCc3ccccc3)[C@H]2C(=O)OCc2ccccc2)C1 | 1.1 | > 100 | – | >2.7 | 36.4
33 | inactive | – | CC(C)C[C@H](NC(=O)OC(C)(C)C)C(=O)N1CCC[C@H]1C(=O)N1[C@H](C(=O)O)[C@H]1C(=O)O | – | – | – | – | –
34 | – | – | CCOC(=O)[C@H]1[C@H](C(=O)OCC)N1C(=O)[C@@H]1CCN1C(=O)[C@H](CC(C)C)NC(=O)OC(C)(C)C | 3.1 | > 100 | – | >4.8 | 20.6
35 | – | – | CC(C)C[C@H](NC(=O)OC(C)(C)C)C(=O)N1CCC[C@@H]1C(=O)N1[C@H](C(=O)OCc2ccccc2)[C@H]1C(=O)OCc1ccccc1 | 1.2 | > 100 | – | >3.2 | 31.4
36 | – | – | CCOC(=O)[C@@H]1[C@@H](C(=O)OCC)N1C(=O)[C@H]1CCCN(C(=O)[C@H](CC(C)C)NC(=O)OC(C)(C)C)C1 | 1 | > 100 | – | – | > 100
37 | – | – | CC(C)(C)OC(=O)NCC(=O)N1CCC[C@H]1C(=O)N1[C@H](C(=O)OCc2ccccc2)[C@H]1C(=O)OCc1ccccc1 | 3.1 | > 100 | – | – | > 100
38 | inactive | – | CC(C)C[C@H](NC(=O)OC(C)(C)C)C(=O)N1CCC[C@H](C(=O)N2[C@H](C(=O)O)[C@H]2C(=O)O)C1 | – | – | – | – | –
39 | – | – | CC(C)(C)OC(=O)NCC(=O)N1CCC[C@H]1C(=O)N1[C@H](C(=O)O)[C@H]1C(=O)O | 0.9 | > 100 | – | – | > 100
40 | – | – | CC(C)C[C@@H](NC(=O)OC(C)(C)C)C(=O)N1CCC[C@H](C(=O)N2[C@H](C(=O)OCc3ccccc3)[C@H]2C(=O)OCc2ccccc2)C1 | 0.7 | > 100 | – | >2.9 | 34
41 | – | – | CC(C)C[C@H](NC(=O)OC(C)(C)C)C(=O)N1CC[C@@H]1C(=O)N1[C@H](C(=O)OCc2ccccc2)[C@H]1C(=O)OCc1ccccc1 | 0.8 | 37.2 | – | 1.2 | 30.8
42 | – | – | CC(C)C[C@H](NC(=O)OC(C)(C)C)C(=O)N1CCC[C@@H](C(=O)N2[C@H](C(=O)OCc3ccccc3)[C@H]2C(=O)OCc2ccccc2)C1 | 0.6 | > 100 | – | >3.9 | 25.6
43 | – | – | CC(C)C[C@H](NC(=O)OC(C)(C)C)C(=O)N1CCC[C@H]1C(=O)N1[C@H](C(=O)OCc2ccccc2)[C@H]1C(=O)OCc1ccccc1 | 2.3 | > 125 | 125 (≈ 77.7 µg/mL) | >11.3 | 11.1
44 | – | – | C[C@@H](NC(=O)[C@H](Cc1ccccc1)NC(=O)OC(C)(C)C)C(=O)N1[C@H](C(=O)OCc2ccccc2)[C@H]1C(=O)OCc1ccccc1 | 1.2 | > 100 | – | >3.2 | 30.5
45 | inactive | – | CC(C)C[C@@H](NC(=O)OC(C)(C)C)C(=O)N1CCC[C@H](C(=O)N2[C@H](C(=O)O)[C@H]2C(=O)O)C1 | – | – | – | – | –
46 | – | – | CC(C)C[C@@H](NC(=O)OC(C)(C)C)C(=O)N1CCC[C@@H]1C(=O)N1[C@H](C(=O)OCc2ccccc2)[C@H]1C(=O)OCc1ccccc1 | 2.8 | > 100 | – | >2.8 | 35.2
47 | inactive | – | CC(C)C[C@@H](NC(=O)OC(C)(C)C)C(=O)N1CCC[C@@H](C(=O)N2[C@H](C(=O)O)[C@H]2C(=O)O)C1 | – | – | – | – | –

Row | Compound | inhibition [2] | inhibition [4] [%] | Ki [1] [µM] | IC50 [3] [µM] | MIC [5] [µM] | Ratio IC50 [6] | IC50 [5] [µM]
48 | Nc1nc(N)nc(Nc2ccc([As]3SCC(CO)S3)cc2)n1 (stereo not given) [MELARSOPROL] | – | 94.3 | – | 4.3 | – | 1653 | 0.0026
